pIC50: −log10 of the molar value. Counter-ions that a name gives are not always drawn. Like-named read-outs stand apart in the source and are kept apart here.

Consider eight compounds from patent US5225417A, “Opioid agonist compounds” (priority 1992, dated 1993).

One assay addresses δ opioid receptor (Rattus norvegicus, UniProt P33533). Description: Opiate Binding Assay, δ receptor (3[H]-DSLET displacement). As to conditions: for Mean IC50 μ/δ Ratio: ratio of mean IC50 values for μ and δ opioid receptors.
For the next assay, the target named is μ opioid receptor (Rattus norvegicus, UniProt P33535). Description: Opiate Binding Assay, μ receptor (3[H]-DAMGO displacement).
Sequence of μ opioid receptor (P33535 whole entry): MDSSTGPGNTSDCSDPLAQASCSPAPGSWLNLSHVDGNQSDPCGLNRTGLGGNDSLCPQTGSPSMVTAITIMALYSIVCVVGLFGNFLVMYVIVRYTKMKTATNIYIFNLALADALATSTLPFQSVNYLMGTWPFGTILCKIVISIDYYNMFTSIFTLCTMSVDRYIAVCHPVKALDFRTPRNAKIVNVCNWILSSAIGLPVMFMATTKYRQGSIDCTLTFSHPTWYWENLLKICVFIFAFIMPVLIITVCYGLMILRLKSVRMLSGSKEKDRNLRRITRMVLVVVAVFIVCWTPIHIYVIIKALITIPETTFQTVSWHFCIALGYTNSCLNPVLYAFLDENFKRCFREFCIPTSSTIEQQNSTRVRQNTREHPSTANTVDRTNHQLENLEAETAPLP
Setting [1] is: read-out: Mean IC50 Value, δ, rat forebrain membranes, 3[H]-DSLET 1.0 nM, 37° C., pH 7.4.
[2] abbreviates: rat forebrain membranes, 3[H]-DAMGO 2.0 nM, 37° C., pH 7.4.

Sequence of δ opioid receptor (P33533 whole entry): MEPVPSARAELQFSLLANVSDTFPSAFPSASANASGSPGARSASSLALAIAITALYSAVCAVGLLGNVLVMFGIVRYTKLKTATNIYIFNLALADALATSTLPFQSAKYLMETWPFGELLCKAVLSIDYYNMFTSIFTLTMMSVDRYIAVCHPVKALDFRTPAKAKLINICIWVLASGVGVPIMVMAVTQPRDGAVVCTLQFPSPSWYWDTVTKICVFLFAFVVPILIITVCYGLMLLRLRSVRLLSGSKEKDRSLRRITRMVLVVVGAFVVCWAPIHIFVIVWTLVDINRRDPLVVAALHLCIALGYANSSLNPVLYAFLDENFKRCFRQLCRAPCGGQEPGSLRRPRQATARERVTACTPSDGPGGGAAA

As usually defined, the pIC50 is the IC50 on a negative log10 scale, so that one unit is a factor of ten. `Oc1ccc2c3c1O[C@H]1c4oc5ccccc5c4C[C@@]4(O)[C@@H](C2)N(CCc2ccccc2)CC[C@]314` (relative stereo) [Example VII, 6,7,8,14bβ-tetrahydro-7-(2-phenylethyl)-4,8(R,α)-methano-4bS*-5H-bisbenzofuro [3,2-e:2',3'-g]isoquinoline-1,8aβ(9H)-diol, hydrochloride] had a negative logarithm of the IC50 (pIC50) on δ opioid receptor of 7.46. The inhibition at 1 µM at μ opioid receptor (read-out: Percent Displacement, μ at 1 μM) worked out at 35%.

As to `CCOC(=O)c1ccc2[nH]c3c(c2c1)C[C@@]1(O)[C@H]2Cc4ccc(O)c5c4[C@@]1(CCN2C)[C@H]3O5` (relative stereo) [Example VI, Ethyl 5,6,7,8,8a,9,14,14bβ-Octahydro1,8αP-dihydroxy-7-methyl-4,8(R,α)methano-4bS*-benzofuro [2,3-a]pyrido[4,3-b]carbazole-11-carboxylate, monohydrochloride], on δ opioid receptor, the “Mean IC50 μ/δ Ratio” value is reported as 3.8. The negative-log IC50 (pIC50) at δ opioid receptor (setting [1]) is 7.19; at μ opioid receptor (read-out: Mean IC50 Value, μ, rat forebrain membranes, 3[H]-DAMGO 2.0 nM, 37° C., pH 7.4), 6.61.

With `CN1CC[C@]23c4c5ccc(O)c4O[C@H]2c2[nH]c4c(I)cccc4c2C[C@@]3(O)[C@H]1C5` (relative stereo) [Example XII, 5,6,7,8,14,14bβ-Hexahydro-13-iodo-7-methyl-4,8 (R,α)-methano-4bS*-benzofuro[2,3-a]pyrido[4,3-b]carbazole-1,8aβ(9H)-diol, monohydrochloride], on δ opioid receptor, the pIC50 was 8.02 and the “Mean IC50 μ/δ Ratio” value came to 10.6. At μ opioid receptor, this compound had a negative logarithm of the IC50 (pIC50) of 7.00.

With `O=C(O)CN1CC[C@]23c4c5ccc(O)c4O[C@H]2c2oc4ccccc4c2C[C@@]3(O)[C@H]1C5` (relative stereo) [Example VIII, 5,6,8,8a,9,14bβ-Hexahydro-1,8aβ-dihydroxy-4,8 (R,α)-methano-4bS*-7H-bisbenzofuro[3,2-e:2',3'-g]isoquinoline-7-acetic acid, hydrochloride], at δ opioid receptor, the negative logarithm of the IC50 (pIC50) is 6.80 and the “Mean IC50 μ/δ Ratio” value is on record as 25. In addition, at μ opioid receptor, the pIC50 is 5.40.

For `CN1CC[C@]23c4c5ccc(O)c4O[C@H]2c2oc4ccccc4c2C[C@@]3(OCc2ccccc2)[C@H]1C5` (relative stereo) [Example X, 6,7,8,8a,9,14bβ-hexahydro-7-methyl-8aβ-(phenylmethoxy)-4,8(R,α)-methano-4bS*-5H-bisbenzofuro[3,2-e:2',3'-g]isoquinolin-1-ol, monohydrochloride], on δ opioid receptor, the negative logarithm of the IC50 (pIC50) is 8.10 and the “Mean IC50 μ/δ Ratio” value was 44. Further, on μ opioid receptor, the pIC50 was 6.45.

As to `CCOC(=O)CN1CC[C@]23c4c5ccc(O)c4O[C@H]2c2oc4ccccc4c2C[C@@]3(O)[C@H]1C5` (relative stereo) [Example IV, Ethyl 5,6,8,8a,9,14bβ-hexahydro-1,8aβ-dihydroxy-4,8(R,α)-methano-4bS*-7H-bisbenzofuro [3,2-e:2',3'-g]isoquinoline-7-acetate, hydrochloride], at δ opioid receptor, the pIC50 was 7.93 and the “Mean IC50 μ/δ Ratio” value is given as > 850. Moreover, the negative logarithm of the IC50 (pIC50) on μ opioid receptor is < 5.00.

On to “7-(3-Furanylmethyl)-5,6,7,8,14,14bβ-hexahydro-4,8(R,α)-methano-4bS*-benzofuro[2,3-a]pyrido [4,3-b]carbazole-1,8aβ(9H)-diol, hydrochloride [Example XIV]”, for which the pIC50 on δ opioid receptor (setting [1]) is 7.50. Moreover, the “Mean IC50 Value, μ” value on μ opioid receptor (setting [2]) is “inactive”.

With `OCc1ccc(CN2CC[C@]34c5c6ccc(O)c5O[C@H]3c3oc5ccccc5c3C[C@@]4(O)[C@H]2C6)o1` (relative stereo) [Example XIII, 5,6,7,8,14,14bβ-Hexahydro-7-[[5-(hydroxymethyl)-2-furanyl]methyl]-4,8(R,α)-methano-4b S*-benzofuro[2,3-a]pyrido[4,3-b]carbazole-1,8aβ(9H)-diol, monohydrochloride], at δ opioid receptor, the pIC50 was ~7.00. Also, the “Mean IC50 Value, μ” value on μ opioid receptor (setting [2]) is “inactive”.
